Reference: patent publication US20250032651A1, “[177LU] LUTETIUM-PSMA I&T COMPOSITION AND DOSIMETRY, KIT, METHOD OF MAKING, AND METHOD OF USING THEREOF” (Curium US LLC, priority 2022, published 2025)
Where “and” joins values, the source holds several entries; their conditions need not be identical. Identical values can stand only once.

Assay: Plasma PK: gamma-counted plasma radioactivity, bi-exponential fit
Format: in vivo, human
Protocol: Additionally, for PK assessment, whole blood samples were collected at six timepoints (Pre-Infusion, 1 h, 4 h, 24 h, 48 h, and 168 h) and processed to extract plasma. All plasma samples were gamma counted locally for analysis of pharmacokinetics.
PK plasma samples were collected at pre-Infusion, 1 h, 4 h, 24 h, 48 h, and 168 h, and counted for radioactivity. Blood samples were first centrifuged to extract plasma, and then the radioactivity in plasma was counted in a gamma counter.
Whole blood samples were collected as detailed in the protocol Schedule of Events i.e. pre-injection, and then at 1 h, 4 h, 24 h, 48 h, and 168 h post-injection. The samples were first centrifuged to separate plasma, and the radioactivity in the plasma was then measured using a gamma counter. Plasma concentrations were subsequently fitted with a bi-exponential function to derive outcome parameters such as the half-life and clearance rate of the radiopharmaceutical in the plasma.

[1] = Cycle 1, plasma radioactivity, bi-exponential fit
[2] = plasma, Cycle 1, excluding patient 42-030
[3] = plasma, Cycle 1, individual patient values
[4] = plasma, Cycle 1, individual patients

For `O=C([O-])CC[C@H](NC(=O)N[C@@H](CCCCNC(=O)CCCCCCC(=O)NCCCC[C@@H](NC(=O)[C@@H](Cc1ccccc1)NC(=O)[C@@H](Cc1ccc(O)c(I)c1)NC(=O)CC[C@H](C(=O)[O-])N1CCN(CC(=O)[O-])CCN(CC(=O)[O-])CCN(CC(=O)[O-])CC1)C(=O)[O-])C(=O)[O-])C(=O)[O-].[177Lu+3].[H+].[H+].[H+].[H+].[H+]` [^177Lu-PSMA I&T, (3S,7S,26R,29R,32R,37R)-29-benzyl-32-(4-hydroxy-3-iodobenzyl)-5,13,20,28,31,34-hexaoxo-37-(4,7,10-tris(carboxymethyl)-1,4,7,10-tetraazacyclododecan-1-yl)-4,6,12,21,27,30,33-heptaazaheptatriacontane-1,3,7,26,37-pentacarboxylic acid; lutetium-177 (III)], the plasma clearance (Cycle 1) was 13.06 ± 16.50 L/h, the “plasma half-life, outlier value” (Cycle 1, patient 42-030 (superscan)) was 113.96 h and the “time to peak plasma concentration” value (Cycle 1, patient 80-007, first post-administration sample delayed) was 127 min. The “plasma mean distribution half-life” value [1] was 1.89 ± 0.34 h, the “plasma mean elimination half-life” value [1] was 14.7 ± 10.1 h and 14.70 ± 10.10 h and the distribution volume (Cycle 1 plasma PK) was “moderate-to-high”. For the same compound, the “AUC Total” value (plasma, Cycle 1, Mean) was 22.77 fIA/L × min, the “Clearance Rate” value (plasma, Cycle 1, Mean) was 13.06 L/h and the “Peak Concentration Value” (plasma, Cycle 1, Mean) was 0.04 fIA/L. For the same compound, the “Time of Peak Concentration” value (plasma, Cycle 1, Mean) was 59.19 min, the Vc (plasma, Cycle 1, Mean) was 20.29 L and the Vd (plasma, Cycle 1, Mean) was 234.64 L. The “AUC Total, Mean” value [2] was 22.77 fIA/L x min, the “AUC Total, max” value [2] was 37.86 fIA/L x min and the “AUC Total, median” value [2] was 20.84 fIA/L x min. The “AUC Total, min” value [2] was 3.07 fIA/L x min, the “Clearance Rate, Mean” value [2] was 13.06 L/h and the “Clearance Rate, max” value [2] was 89.38 L/h. The “Clearance Rate, median” value [2] was 9.79 L/h, the “Clearance Rate, min” value [2] was 2.89 L/h and the “Distribution Half-Life, Mean” value [2] was 1.89 h. For the same compound, the “Distribution Half-Life, max” value [2] was 2.42 h, the “Distribution Half-Life, median” value [2] was 1.93 h and the “Distribution Half-Life, min” value [2] was 1.14 h. The “Elimination Half-Life, Mean” value [2] was 14.70 h, the “Elimination Half-Life, max” value [2] was 53.30 h and the “Elimination Half-Life, median” value [2] was 10.52 h. The “Elimination Half-Life, min” value [2] was 8.16 h, the “Peak Concentration Value, Mean” value [2] was 0.04 fIA/L and the “Peak Concentration Value, max” value [2] was 0.07 fIA/L. The “Peak Concentration Value, median” value [2] was 0.04 fIA/L, the “Peak Concentration Value, min” value [2] was 0.01 fIA/L and the “Time of Peak Concentration” value [2] was 33.00 min. For the same compound, the “Time of Peak Concentration, Mean” value [2] was 59.19 min, the “Time of Peak Concentration, max” value [2] was 127.00 min and the “Time of Peak Concentration, median” value [2] was 59.00 min. For the same compound, the “Vc, Mean” value [2] was 20.29 L, the “Vc, max” value [2] was 111.78 L and the “Vc, median” value [2] was 16.33 L. For the same compound, the “Vc, min” value [2] was 9.92 L, the “distribution volume (column headed "Patient"), Mean” value [2] was 234.64 and the “distribution volume (column headed "Patient"), max” value [2] was 1365.03. The “distribution volume (column headed "Patient"), median” value [2] was 157.12, the “distribution volume (column headed "Patient"), min” value [2] was 54.60 and the “AUC Total” value [3] was 30.05 fIA/L x min and 27.64 fIA/L x min and 20.58 fIA/L x min and 19.49 fIA/L x min and 3.07 fIA/L x min and 25.59 fIA/L x min and 25.58 fIA/L x min and 21.49 fIA/L x min and 26.70 fIA/L x min and 31.83 fIA/L x min and 15.14 fIA/L x min and 28.67 fIA/L x min and 17.09 fIA/L x min and 19.85 fIA/L x min and 34.96 fIA/L x min and 24.13 fIA/L x min and 13.46 fIA/L x min and 17.93 fIA/L x min and 18.79 fIA/L x min and 15.54 fIA/L x min and 19.50 fIA/L x min and 37.86 fIA/L x min and 21.09 fIA/L x min and 34.60 fIA/L x min and 33.81 fIA/L x min and 19.09 fIA/L x min and 15.16 fIA/L x min. For the same compound, the “Clearance Rate” value [3] was 3.89 L/h and 4.21 L/h and 9.97 L/h and 17.94 L/h and 89.38 L/h and 6.26 L/h and 9.62 L/h and 7.63 L/h and 2.82 L/h and 4.73 L/h and 21.26 L/h and 2.89 L/h and 20.65 L/h and 8.08 L/h and 5.73 L/h and 7.92 L/h and 17.68 L/h and 10.55 L/h and 14.19 L/h and 17.10 L/h and 10.68 L/h and 3.95 L/h and 13.78 L/h and 3.66 L/h and 4.78 L/h and 12.34 L/h and 10.74 L/h, the “Distribution Half-Life” value [3] was 1.14 h and 2.14 h and 1.88 h and 1.93 h and 1.69 h and 2.13 h and 2.19 h and 2.31 h and 1.81 h and 1.66 h and 1.78 h and 1.35 h and 1.77 h and 2.12 h and 1.92 h and 2.39 h and 1.30 h and 2.03 h and 2.42 h and 1.46 h and 2.05 h and 2.04 h and 2.22 h and 2.21 h and 1.67 h and the “Elimination Half-Life” value [3] was 9.61 h and 24.34 h and 15.32 h and 9.32 h and 10.58 h and 10.59 h and 12.43 h and 10.02 h and 10.46 h and 113.96 h and 9.19 h and 12.50 h and 53.30 h and 10.35 h and 9.28 h and 8.16 h and 8.92 h and 35.48 h and 8.68 h and 11.79 h and 19.98 h and 11.28 h and 9.41 h and 23.96 h and 16.65 h. The Vc [3] was 21.87 L and 15.83 L and 16.82 L and 13.76 L and 111.78 L and 17.80 L and 11.45 L and 20.41 L and 38.22 L and 10.76 L and 18.90 L and 22.65 L and 15.26 L and 21.10 L and 9.92 L and 17.87 L and 22.51 L and 14.72 L and 16.91 L and 25.15 L and 17.72 L and 12.87 L and 15.24 L and 14.74 L and 11.55 L and 15.53 L and 14.35 L, the “distribution volume (column headed "Patient")” value [3] was 136.62 and 93.01 and 134.00 and 273.75 and 1365.03 and 112.27 and 139.07 and 115.14 and 463.99 and 62.71 and 383.51 and 222.08 and 308.54 and 108.16 and 67.50 and 118.24 and 227.51 and 540.13 and 177.78 and 291.02 and 307.91 and 64.25 and 187.12 and 54.60 and 165.33 and 296.49 and 148.91 and the “Time of Peak Concentration” value (plasma, Cycle 1, individual patient values, time of first post-administration sample) was 53.00 min and 60.00 min (6×) and 51.00 min (2×) and 58.00 min and 61.00 min (2×) and 50.00 min and 63.00 min and 57.00 min and 55.00 min and 52.00 min (2×) and 68.00 min and 71.00 min and 65.00 min and 33.00 min and 40.00 min and 69.00 min and 56.00 min and 127.00 min and 47.00 min. The “Peak Concentration Value” (plasma, Cycle 1, individual patient values, value of first post-administration sample) was 0.04 fIA/L (10×) and 0.03 fIA/L (4×) and 0.05 fIA/L (7×) and 0.01 fIA/L and 0.06 fIA/L (2×) and 0.02 fIA/L and 0.07 fIA/L (2×), the “AUC Total” value [4] was 19.09 fIA/L × min and 15.16 fIA/L × min and 30.05 fIA/L × min and 27.64 fIA/L × min and 20.58 fIA/L × min and 19.49 fIA/L × min and 3.07 fIA/L × min and 25.59 fIA/L × min and 25.58 fIA/L × min and 21.49 fIA/L × min and 26.70 fIA/L × min and 31.83 fIA/L × min and 15.14 fIA/L × min and 28.67 fIA/L × min and 17.09 fIA/L × min and 19.85 fIA/L × min and 34.96 fIA/L × min and 24.13 fIA/L × min and 13.46 fIA/L × min and 17.93 fIA/L × min and 18.79 fIA/L × min and 15.54 fIA/L × min and 19.50 fIA/L × min and 37.86 fIA/L × min and 21.09 fIA/L × min and 34.60 fIA/L × min and 33.81 fIA/L × min and the “Clearance Rate” value [4] was 12.34 L/h and 10.74 L/h and 3.89 L/h and 4.21 L/h and 9.97 L/h and 17.94 L/h and 89.38 L/h and 6.26 L/h and 9.62 L/h and 7.63 L/h and 2.82 L/h and 4.73 L/h and 21.26 L/h and 2.89 L/h and 20.65 L/h and 8.08 L/h and 5.73 L/h and 7.92 L/h and 17.68 L/h and 10.55 L/h and 14.19 L/h and 17.10 L/h and 10.68 L/h and 3.95 L/h and 13.78 L/h and 3.66 L/h and 4.78 L/h. The “Peak Concentration Value” [4] was 0.05 fIA/L (7×) and 0.04 fIA/L (10×) and 0.03 fIA/L (4×) and 0.01 fIA/L and 0.06 fIA/L (2×) and 0.02 fIA/L and 0.07 fIA/L (2×), the “Time of Peak Concentration” value [4] was 47.00 min and 53.00 min and 60.00 min (6×) and 51.00 min (2×) and 58.00 min and 61.00 min (2×) and 50.00 min and 63.00 min and 57.00 min and 55.00 min and 52.00 min (2×) and 68.00 min and 71.00 min and 65.00 min and 33.00 min and 40.00 min and 69.00 min and the Vc [4] was 15.53 L and 14.35 L and 21.87 L and 15.83 L and 16.82 L and 13.76 L and 111.78 L and 17.80 L and 11.45 L and 20.41 L and 38.22 L and 10.76 L and 18.90 L and 22.65 L and 15.26 L and 21.10 L and 9.92 L and 17.87 L and 22.51 L and 14.72 L and 16.91 L and 25.15 L and 17.72 L and 12.87 L and 15.24 L and 14.74 L and 11.55 L. The Vd [4] was 296.49 L and 148.91 L and 136.62 L and 93.01 L and 134.00 L and 273.75 L and 1365.03 L and 112.27 L and 139.07 L and 115.14 L and 463.99 L and 62.71 L and 383.51 L and 222.08 L and 308.54 L and 108.16 L and 67.50 L and 118.24 L and 227.51 L and 540.13 L and 177.78 L and 291.02 L and 307.91 L and 64.25 L and 187.12 L and 54.60 L and 165.33 L, the “AUC Total” value (plasma, Cycle 1, max) was 37.86 fIA/L × min and the “Clearance Rate” value (plasma, Cycle 1, max) was 89.38 L/h. The “Peak Concentration Value” (plasma, Cycle 1, max) was 0.07 fIA/L, the “Time of Peak Concentration” value (plasma, Cycle 1, max) was 127.00 min and the Vc (plasma, Cycle 1, max) was 111.78 L. The Vd (plasma, Cycle 1, max) was 1365.03 L, the “AUC Total” value (plasma, Cycle 1, median) was 20.84 fIA/L × min and the “Clearance Rate” value (plasma, Cycle 1, median) was 9.79 L/h. For the same compound, the “Peak Concentration Value” (plasma, Cycle 1, median) was 0.04 fIA/L, the Vc (plasma, Cycle 1, median) was 16.33 L and the Vd (plasma, Cycle 1, median) was 157.12 L.
